Laboratory results as given in PubChem BioAssay (NCI).
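Cultured in 96-well plates, cells were exposed to test compound for 48 hours across five concentrations. At the GI50, growth is halved. TGI is the concentration that stops growth completely.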

Legend:
Experiment in all cases: inhibition of tumour cell growth, NCI panel, 48 h
COLO 205 colon = system: COLO 205 colon
HOP-62 NSCLC = system: HOP-62 NSCLC
OVCAR-3 ovarian = system: OVCAR-3 ovarian
OVCAR-4 ovarian = system: OVCAR-4 ovarian
T-47D breast = system: T-47D breast
TK-10 renal = system: TK-10 renal
HCT-116 colon = system: HCT-116 colon
LOX IMVI melanoma = system: LOX IMVI melanoma
MOLT-4 leukemia = system: MOLT-4 leukemia
SR leukemia = system: SR leukemia

Compound	GI50 (COLO 205 colon) [µM]	TGI (COLO 205 colon) [µM]	GI50 (HOP-62 NSCLC) [µM]	TGI (HOP-62 NSCLC) [µM]	GI50 (OVCAR-3 ovarian) [µM]	TGI (OVCAR-3 ovarian) [µM]	GI50 (OVCAR-4 ovarian) [µM]	TGI (OVCAR-4 ovarian) [µM]	GI50 (T-47D breast) [µM]	TGI (T-47D breast) [µM]	GI50 (TK-10 renal) [µM]	TGI (TK-10 renal) [µM]	GI50 (HCT-116 colon) [µM]	TGI (HCT-116 colon) [µM]	GI50 (LOX IMVI melanoma) [µM]	TGI (LOX IMVI melanoma) [µM]	GI50 (MOLT-4 leukemia) [µM]	TGI (MOLT-4 leukemia) [µM]	TGI (SR leukemia) [µM]	GI50 (SR leukemia) [µM]
CCC/C(=N/N=C(N)N)c1ccc(NC(=O)c2cc3cc(OC)ccc3[nH]2)cc1	9.77	30	10.1	30.2	6.36	29.7	3.74	18.7	7.06	32.9	17.9	39								
CCc1c(C#N)c(S[C@@H](C(N)=O)c2ccccc2)nc(N(C)C)c1C#N	> 100	> 100	3.63	17.7	> 100	> 100			> 100	> 100	21.9	80.4	> 100	> 100	> 100	> 100				
O=C1CCCCCCCC/C=C\CC(c2ccco2)O1 (configuration not stated)	31.6	> 100	15.6	62.3	32.2	> 100			13.1	57	> 100	> 100	15.1	29.5	32.3	51.6	20.8	65.7		
BrC1=CC=C2NC=CC3=CC=NC1C32 (configuration not stated)		58.5		> 100		80.6		97.3				99.8		21.1		21.4		15.6	26	
O=C(CO)CC(=O)C(=O)Nc1ccccc1		> 100		> 100		> 100		> 100				> 100		> 100		> 100		> 100	> 100	
COc1ccc(-n2nnnc2-c2c[nH]c3c(F)cc(F)cc23)cc1	> 100	> 100	37.5	> 100	> 100	> 100	55	> 100	> 100	> 100	> 100	> 100	> 100	> 100	86.6	> 100	> 100	> 100		
CCCCCCCCCCCCCC(=O)CC(=O)c1c(O)cccc1O		55.1		> 100		37.3		> 100				> 100		> 100		36.3		52.7		
N#CC(C(=O)/C(=N/N)C(C#N)c1ccccc1)c1ccccc1 (configuration not stated)				> 100		> 100		> 100				> 100		> 100		> 100		> 100		
Clc1cc(Cc2cc(Cl)c(Cl)c3c2OCOC3)c2c(c1Cl)COCO2		> 100		63		69		43.9				> 100		> 100		> 100		> 100	> 100	
CCOc1ccccc1NC(=O)CC1SC(=Nc2ccc([N+](=O)[O-])cc2)NC1=O (configuration not stated)		35.1		34.3		31.6		29.8				70.2		29.3		47.1		60.3		
CC(=O)[CH-]C(=O)c1ccccc1.CC(=O)[CH-]C(=O)c1ccccc1.[Eu+3].[OH-].[OH3+]	> 100	> 100	> 100	> 100			> 100	> 100			> 100	> 100	> 100	> 100	> 100	> 100	> 100	> 100		
O=C(CC1(O)C(=O)Nc2c(Cl)ccc(Cl)c21)c1ccc2ccccc2c1 (configuration not stated)		28.7		99.2		14.3		5.92				44.4		28.3		31.9		38.9	7.62	
N#Cc1c(NN)nc(NN)c(C#N)c1-c1ccccc1		> 100		> 100		> 100		> 100				> 100		> 100		> 100		> 100		
CN(C)c1ccc([O][Bi]([Cl])[Cl])cc1	> 100	> 100			> 100	> 100	> 100	> 100			> 100	> 100	> 100	> 100	> 100	> 100	> 100	> 100	> 100	80.1
Oc1cc(O)c2c(-c3c(O)c(-c4ccc(O)c(O)c4)[o+]c4cc(O)cc(O)c34)c(O)c(-c3ccc(O)c(O)c3)[o+]c2c1		> 100		97.8		46.2		> 100				> 100		> 100		> 100		> 100	74.8	
Cn1c(=O)nc2n(-c3cccc(Br)c3)c3ccccc3nc-2c1=O		9.64		28		5.94		14.6				24.1		18.1						
O=c1cc2ccccc2nn1Cc1cccc(Cl)c1		> 100		> 100		> 100		> 100				> 100		> 100		> 100				
O=C1NC(=O)C2C(=O)NC(=O)C1C2(c1ccccc1)c1cc[nH]c1 (configuration not stated)		> 100		> 100		> 100		> 100				> 100				> 100		> 100		
N/C(=C\c1ccc(OCc2ccccc2)c(OCc2ccccc2)c1[N+](=O)[O-])C(=O)O		> 100		> 100		> 100						> 100		> 100		> 100		> 100	> 100	
Cc1ccccc1C(=O)c1ccccc1O		> 100		> 100		> 100		> 100				> 100		> 100		> 100		> 100		

Compound	GI50 (COLO 205 colon) [µM]	TGI (COLO 205 colon) [µM]	GI50 (HOP-62 NSCLC) [µM]	TGI (HOP-62 NSCLC) [µM]	GI50 (OVCAR-3 ovarian) [µM]	TGI (OVCAR-3 ovarian) [µM]	GI50 (OVCAR-4 ovarian) [µM]	TGI (OVCAR-4 ovarian) [µM]	GI50 (T-47D breast) [µM]	TGI (T-47D breast) [µM]	GI50 (TK-10 renal) [µM]	TGI (TK-10 renal) [µM]	GI50 (HCT-116 colon) [µM]	TGI (HCT-116 colon) [µM]	GI50 (LOX IMVI melanoma) [µM]	TGI (LOX IMVI melanoma) [µM]	GI50 (MOLT-4 leukemia) [µM]	TGI (MOLT-4 leukemia) [µM]	TGI (SR leukemia) [µM]	GI50 (SR leukemia) [µM]
CC(=O)[CH-]C(=O)c1ccccc1.CC(=O)[CH-]C(=O)c1ccccc1.CC(C)CCCC(C)[C@H]1CCC2[C@@H]3CC=C4C[C@@H]([O-])CC[C@]4(C)C3CC[C@@]21C.CC[O-].[Ti+4] (some centres not stated)	48.5	> 100	43.2	> 100	49.7	> 100	91.6	> 100			45.6	> 100	45.7	> 100	81.1	> 100	16.4	63.1		
N#C/C(=C/c1ccc[nH]1)P(=O)(O)O		> 100		> 100		> 100		> 100				> 100		> 100		> 100		> 100	> 100	
COC(=O)C(=O)OC1(C(C)=O)CC2(c3ccccc3)OC1(c1ccccc1)c1ccccc12 (configuration not stated)		29.5		32.8		27.9		51.1				70.6		33.8		30.4		> 100	> 100	
Oc1ccccc1C=NCc1ccco1				> 100		> 100		> 100				> 100		> 100		> 100		> 100	> 100	
CCC/C(=N/NC(=O)C(N)=O)C(CC)C(=O)CCC(=O)N(Cc1ccccc1)Cc1ccccc1 (configuration not stated)		> 100		> 100		> 100						> 100		> 100		> 100		> 100	> 100	
Cc1ccc(/C=C2/SC(Nc3nc(-c4csc(NC5=NC(=O)/C(=C\c6ccc(C)cc6)S5)n4)cs3)=NC2=O)cc1	20.2	> 50	1.94	15.5	3.28	33.9			35.3	> 50	8.49	26.6					18.5	> 50		
CC1(CO)OC(n2cc(C(=O)NC(=O)OCc3ccccc3)c(=O)[nH]c2=O)CC1O (configuration not stated)		> 100		> 100		> 100						> 100		> 100		> 100		> 100	> 100	
CC(C)c1ccc(C2C3=C(N=C4SCC(=O)N42)C(=O)c2ccccc23)cc1 (configuration not stated)		> 100		> 100		> 100		> 100				> 100		> 100				> 100		
Cc1ccccc1N=Nc1ccc(NC(=O)c2ccnn2C)c(C)c1	> 100	> 100	29.4	> 100	> 100	> 100	8.71	> 100	9.9	> 100	20.5	> 100	5.99	> 100	72.2	> 100				
O=C(CNc1ccc2c(c1)C(=O)c1ccccc1C2=O)Nc1ccc2c(c1)C(=O)c1ccccc1C2=O	1.26	2.94	1.85	3.59	0.71	1.83	1.5	4.05	0.604	2.32	1.7	3.17	0.24	0.711	0.142	0.317				
COc1cc(/C=C(\C#N)C(=O)c2ccccc2)ccc1O		> 100		> 100		> 100		> 100				> 100		> 100		> 100		> 100	> 100	
Fc1ccc2c(c1)c(-c1nc(-c3c[nH]c4ncccc34)cs1)cn2CCCN1CCCCC1	1.73	3.48			1.63	3.12	1.83	4.01			1.85	3.42	1.75	3.3						
O=[N+]([O-])c1nccn1CC(O)CN1CC1 (configuration not stated)		> 100		> 100		> 100		> 100				> 100		> 100				> 100	> 100	
O=C1c2cc3c(cc2-c2c1c1ccc(Cl)cc1c(=O)n2CCCNCCO)OCO3	1.09	2.6	0.0714	1.73	1.32	2.83	1.48	3.32			1.5	2.94	0.104	0.588	0.0467	1.3	0.031	0.512		
C[S+](C)CCOC(=O)C(=[N+]=[N-])c1ccc([N+](=O)[O-])cc1		> 100		> 100		> 100		> 100				> 100		> 100				> 100		
O=C1C(Cl)=C(Nc2cccc(Cl)c2)C(=O)N1Cc1ccccc1Cl			15.8	37.9	2.14	16.1	12.4	42.4			12.1	30	1.03	4.41	1.64	3.76	0.37	> 100	0.645	0.26
COC(=O)/C([Se]c1c(C)cc(C)cc1C)=C(\[Se]c1c(C)cc(C)cc1C)C(=O)OC		> 100		> 100		> 100		> 100				> 100		> 100		> 100		> 100	> 100	
O=c1ccn(C2OC(CO/N=C/c3ccc(O)c(O)c3O)C(O)C2O)c(=O)[nH]1 (configuration not stated)	14.7	30.6	67.6	> 100	13.6	27.7	18.9	37.8	21.8	50.3	> 100	> 100	20.6	58.7	16.1	32.2				
N#CC(C(=O)CCC(=O)C(C#N)c1ccccc1)c1ccccc1 (configuration not stated)		> 100		> 100		> 100		> 100				> 100		> 100		> 100		> 100	> 100	
Cc1ccc(-n2c3c(c4c(CN(C)C)c(O)ccc42)CCc2ccccc2C3=O)cc1	> 100	> 100	17.8	40.9	21.4	44.5			> 100	> 100	18.9	35.6	14.4	27.8	15.8	29.5	20.3	39.3		
